# From patent US12377069B2, “Compounds, compositions, methods of using, and methods for preparing compounds” (UNIVERSITY OF LOUISVILLE RESEARCH FOUNDATION, INC., priority 2018, dated 2025)
# Legend:
# C57BL/6 mice [1] = test: LPS-induced peritonitis mouse model; assay type: in vivo; settings: 20 mg/kg; LPS 2 mg/kg i.p.; 4 h post LPS
# Procedure: FIG. 1: UAS03 is a potent anti-inflammatory structural analogue of UroA and induces tight junction proteins. (A) Chemical structures of UroA, UAS03. UroA/UAS03 stability was examined in the presence of gastric pH 2.0 and digestive enzymes. UroA and UAS03 (0.2 mg/ml) were incubated with digestive enzymes (esterases and proteases, 100 U/ml) for 12 h at 37° C. and compound levels were quantified. (B) BMDMs were stimulated with LPS (50 ng/ml) without or with UroA (blue line)/UAS03 (purple line) (0.1, 1, 10, 25 and 50 μM) for 6 hours. IL-6 and TNF-α levels in supernatants were measured. (C) C57BL/6 mice (n=3-4) were pretreated with UroA (20 mg/kg) and UAS03 (20 mg/kg). After 4 hours, LPS (2 mg/kg) was injected intraperitoneally. Post 4 h of LPS administration, serum levels of IL-6 and TNF-α was measured. […] (G) The fold changes in mRNA levels of claudin 4 (Cldn4), occludin (Ocln) and Zona occludens 1 (ZO1) in HT29 cells were determined by RT PCR method. (H) UroA/UAS03 induced protein expression of Cldn4, Ocln and ZO1 in HT29 cells were determined by immunoblots and quantified by Image J software. […] The green intensity (n=15-20 cell membrane regions) was measured. […] The protein lysates were prepared from colon scrapes and subjected to immunoblots and detected the expression of the (J) Nrf2, HO1, Cldn4 and (K) AhR using appropriate antibodies as described in methods. […]
# C57BL/6 mice [2] = test: DSS-induced acute colitis; assay type: in vivo, mouse; settings: oral 20 mg/kg on day 4 and 6
# Procedure: DSS-induced colitis: Acute experimental colitis in mice was induced by giving 3% (w/v) colitis grade DSS (MP Biomedicals) in drinking water for 7 days. Control animal received drinking water without DSS. All colitis group mice were randomly divided into three groups viz. vehicle treated (0.25% Na-CMC), UroA (20 mg/kg/day) and UAS03 (20 mg/kg/day) on the 4th and 6th day of DSS treatment. After 7 days, animals were put back on regular water for a period of 7 days. For chronic DSS colitis model, we used three cycles of 2.0% (w/v) DSS and each DSS cycle consisted or 7 days followed by 10 days of regular water and mice were treated with UroA (20 mg/kg/day) on every 4th and 6th day of DSS cycle.
# Assessment of colitis severity and tissue collection: Mice were evaluated daily for change in body weight, stool consistency and rectal bleeding and score was given and combined to obtained disease activity index (MURTHY et al., (1993) “Treatment of dextran sulfate sodium-induced murine colitis by intracolonic cyclosporin” Dig Dis Sci, Vol. 38, pp. 1722-1734). After euthanasia, the colon was removed and flushed with PBS containing (1 mM PMSF and 0.2 mM sodium orthovanadate). Colon length and colon weight were measured and small parts of colon were excised for myeloperoxidase (MPO) activity and RNA isolation. Tissues for MPO and RNA extraction were snap frozen in liquid nitrogen and stored in −80° C. until further analysis. Tissue for histological examination was stored in 10% phosphate buffered saline formalin. Blood was collected and serum was separated by centrifugation at 3500×g for 15 min. Serum cytokines (IL-6, TNF-α; Biolegend) and chemokines (CXCL1; R&D Systems) levels were measured by ELISA according to manufacturer's instructions.
# In vivo intestinal permeability assay: The gut barrier function was evaluated by in vivo intestinal permeability using FITC-Dextran (MW 4000; FD4, Sigma-Aldrich, USA) (FURUTA et al., (2001) “Hypoxia-inducible factor 1-dependent induction of intestinal trefoil factor protects barrier function during hypoxia” J Exp Med, Vol. 193, pp. 1027-1034). Briefly, mice were orally administered with FITC-dextran (60 mg/100 gm body weight). Mice were fasted for 4 h prior to euthanization. The FITC-dextran concentration in serum was determined using the standard curve of FITC-dextran in serum (excitation, 485 nm; emission, 525 nm; BMG LABTECH).
structure (smiles),measurement,setting,value
"Oc1ccc2c(c1)COc1cc(O)ccc1-2 [UAS03, 6H-benzo[c]chromene-3,8-diol]",LPS-induced increase in serum IL-6 and TNF-α levels,C57BL/6 mice [1],reduced
same,3% DSS induced acute colitis,C57BL/6 mice [2],protected from 3% DSS induced acute colitis
same,DAI scores during disease progression,C57BL/6 mice [2],overall decreased DAI scores
"O=c1oc2cc(O)ccc2c2ccc(O)cc12 [UroA, 3,8-dihydroxy-6H-dibenzo[b,d]pyran-6-one]",LPS-induced increase in serum IL-6 and TNF-α levels,C57BL/6 mice [1],reduced
same,3% DSS induced acute colitis,C57BL/6 mice [2],protected from 3% DSS induced acute colitis
same,DAI scores during disease progression,C57BL/6 mice [2],overall decreased DAI scores
